molecular target: EGFR (UniProt P00533); experiment: Inhibition of EGFR Kinase Activity
Sequence (P00533 whole entry, looked up): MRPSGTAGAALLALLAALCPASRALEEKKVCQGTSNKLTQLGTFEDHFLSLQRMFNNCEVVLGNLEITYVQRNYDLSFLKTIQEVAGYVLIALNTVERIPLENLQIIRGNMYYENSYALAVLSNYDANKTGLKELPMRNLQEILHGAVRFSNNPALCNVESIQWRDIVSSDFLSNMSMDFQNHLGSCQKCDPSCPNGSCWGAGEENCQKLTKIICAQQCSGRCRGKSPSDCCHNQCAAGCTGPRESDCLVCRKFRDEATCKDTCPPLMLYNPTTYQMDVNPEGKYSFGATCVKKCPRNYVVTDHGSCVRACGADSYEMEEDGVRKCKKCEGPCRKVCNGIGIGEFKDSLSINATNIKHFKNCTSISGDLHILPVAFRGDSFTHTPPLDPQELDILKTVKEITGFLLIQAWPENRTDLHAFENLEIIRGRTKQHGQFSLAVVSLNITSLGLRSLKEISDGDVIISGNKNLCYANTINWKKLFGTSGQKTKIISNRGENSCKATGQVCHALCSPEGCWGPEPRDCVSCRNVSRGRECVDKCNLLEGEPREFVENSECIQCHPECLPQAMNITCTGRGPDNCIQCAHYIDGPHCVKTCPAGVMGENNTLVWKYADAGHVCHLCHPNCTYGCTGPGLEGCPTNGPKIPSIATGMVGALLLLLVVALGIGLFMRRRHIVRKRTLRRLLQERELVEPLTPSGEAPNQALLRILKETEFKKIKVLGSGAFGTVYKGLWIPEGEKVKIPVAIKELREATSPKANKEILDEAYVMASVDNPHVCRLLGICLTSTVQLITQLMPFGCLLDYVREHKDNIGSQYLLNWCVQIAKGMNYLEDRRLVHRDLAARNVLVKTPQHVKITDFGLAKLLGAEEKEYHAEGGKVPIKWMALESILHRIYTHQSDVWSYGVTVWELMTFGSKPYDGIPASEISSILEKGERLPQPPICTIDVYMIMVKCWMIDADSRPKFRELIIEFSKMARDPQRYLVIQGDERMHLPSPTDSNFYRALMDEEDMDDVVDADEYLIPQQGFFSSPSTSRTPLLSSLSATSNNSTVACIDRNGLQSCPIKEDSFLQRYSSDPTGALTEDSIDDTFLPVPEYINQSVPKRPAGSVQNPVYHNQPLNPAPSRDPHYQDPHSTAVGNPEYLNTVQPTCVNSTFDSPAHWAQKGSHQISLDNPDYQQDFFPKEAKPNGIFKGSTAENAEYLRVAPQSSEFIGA

Compound | IC50
C=CCN(c1ccc(C(=O)OC)cc1)c1ncnc(Nc2cccc(NC(=O)C=C)c2)n1 | < 50 µM
C=CC(=O)Nc1ccc(Nc2ncnc(N(C)c3ccc(OCc4ccccc4)cc3)n2)cc1 | < 50 µM
C=CC(=O)Nc1ccc(Nc2ncnc(Nc3ccc(OCC)c(OCC)c3)n2)cc1 | < 50 µM
CC#CC(=O)Nc1cc(Nc2ncnc(N(C)c3ccc(OCc4ccccc4)c(Cl)c3)n2)ccc1OCCCN1CCOCC1 | < 50 µM
C=CC(=O)Nc1ccc(Nc2ncnc(NC3CC3c3ccc(Cl)cc3)n2)cc1 (configuration not stated) | < 50 µM
C=CC(=O)Nc1cccc(Nc2ncnc(N(CC)c3ccc(F)c(Cl)c3)n2)c1 | < 50 µM
C=CCN(c1cccc(C)c1)c1ncnc(Nc2ccc(NC(=O)C=C)cc2)n1 | < 50 µM
C=CC(=O)Nc1cccc(Nc2ncnc(NN3CCCc4c(Cl)cccc43)n2)c1 | < 50 µM
C=CC(=O)N(CCCN1CCOCC1)c1cccc(Nc2ncnc(Nc3cc(Cl)cc4ccccc34)n2)c1 | < 50 µM
C=CC(=O)Nc1cccc(Nc2ncnc(N(C)c3ccc(OC)c(OC)c3)n2)c1 | < 50 µM
C=CC(=O)Nc1ccc(Nc2ncnc(N(C)c3ccc(OCCO)cc3)n2)cc1 | < 50 µM
C=CCN(c1ncnc(Nc2ccc(NC(=O)C=C)cc2)n1)c1cccc2ccccc12 | < 50 µM
C=CC(=O)Nc1cccc(Nc2ncnc(Nc3cc(OC)c(OC)c(OCCN4CCOCC4)c3)n2)c1 | < 50 µM
CC#CC(=O)Nc1cccc(Nc2ncnc(Nc3cccc(CC(=O)OC)c3)n2)c1 | < 50 µM
C=CC(=O)Nc1cccc(Nc2ncnc(N(C)c3ccc(OCc4ccccc4)cc3)n2)c1 | < 50 µM
CC#CC(=O)Nc1cccc(Nc2ncnc(Nc3ccc(OCCO)cc3)n2)c1 | < 50 µM
C=CC(=O)Nc1cccc(Nc2ncnc(N(C)c3cccc(Cl)c3)n2)c1 | < 50 µM
C=CCN(c1cccc(CC(=O)OC)c1)c1ncnc(Nc2cccc(NC(=O)C=C)c2)n1 | < 50 µM
C=CCN(c1ccc(OC)c(OCCOC)c1)c1ncnc(Nc2ccc(NC(=O)C=C)cc2)n1 | < 50 µM
C=CC(=O)Nc1cccc(Nc2ncnc(NN3CCCc4cc(OC)ccc43)n2)c1 | < 50 µM
C=CC(=O)Nc1cccc(Nc2ncnc(N3CCCc4ccc(Cl)cc43)n2)c1 | < 50 µM
C=CC(=O)Nc1cccc(Nc2ncnc(N(C)c3ccc4c(cnn4Cc4ccccn4)c3)n2)c1 | < 50 µM
CC#CC(=O)Nc1cccc(Nc2ncnc(Nn3c(=O)[nH]c4ccccc43)n2)c1 | < 50 µM

Compound | IC50
C=CCC(=O)Nc1cccc(Nc2ncnc(Nc3cccc(Cl)c3)n2)c1 | < 50 µM
C=CCN(c1cccc(CC(=O)OC)c1)c1ncnc(Nc2cccc(NC(=O)C#CC)c2)n1 | < 50 µM
C=CCN(c1cccc(S(=O)(=O)c2ccc([N+](=O)[O-])cc2)c1)c1ncnc(Nc2ccc(NC(=O)C=C)cc2)n1 | < 50 µM
CC#CC(=O)Nc1cc(Nc2ncnc(N(C)c3ccc4c(ccn4Cc4ccccc4)c3)n2)ccc1OCCCC1CCN(C)CC1 | < 50 µM
C/C=C/C(=O)Nc1cccc(Nc2ncnc(Nc3ccc4c(ccn4Cc4ccccc4)c3)n2)c1 | < 50 µM
C=CC(=O)Nc1cccc(Nc2ncnc(NC3CC3c3ccc(Cl)cc3)n2)c1 (configuration not stated) | < 50 µM
CC#CC(=O)Nc1cccc(Nc2ncnc(N(C)n3c(=O)n(C(=O)C(C)(C)C)c4ccccc43)n2)c1 | < 50 µM
C=CCN(c1ncnc(Nc2cccc(NC(=O)C=C)c2)n1)C1CC1c1ccc(Cl)cc1 (configuration not stated) | < 50 µM
CC#CC(=O)Nc1cccc(Nc2ncnc(N(C)c3cccc(CC(=O)OC)c3)n2)c1 | < 50 µM
C=CC(=O)Nc1cccc(Nc2ncnc(Nc3ccc(OCc4cccc(C(F)(F)F)c4)c(OC)c3)n2)c1 | < 50 µM
C=CC(=O)Nc1ccc(Nc2ncnc(N(CC)c3cccc(CC(=O)OC)c3)n2)cc1 | < 50 µM
C=CC(=O)Nc1ccc(Nc2ncnc(N(C)c3cccc4ccccc34)n2)cc1 | < 50 µM
CC#CC(=O)Nc1cccc(Nc2ncnc(N(C)c3ccc(OCc4ccccc4)c(Cl)c3)n2)c1 | < 50 µM
C=CCN(c1ccc(OCCOC)c(OC)c1)c1ncnc(Nc2cccc(NC(=O)C#CC)c2)n1 | < 50 µM
C=CCN(c1ccc(OCCOC)c(OC)c1)c1ncnc(Nc2cccc(NC(=O)C=C)c2)n1 | < 50 µM
C=CC(=O)Nc1ccc(Nc2ncnc(N(C)c3ccc(OCCOC)c(OC)c3)n2)cc1 | < 50 µM
C=CC(=O)Nc1cccc(Nc2ncnc(N(C)c3cccc4ccccc34)n2)c1 | < 50 µM
CC#CC(=O)Nc1cccc(Nc2ncnc(Nc3ccc(OCc4ccccc4)c(Cl)c3)n2)c1 | < 50 µM
C=CC(=O)Nc1cccc(Nc2ncnc(N(CC)c3cccc(CC(=O)OC)c3)n2)c1 | < 50 µM
CC#CC(=O)Nc1cccc(Nc2ncnc(Nn3c(=O)n(C(=O)C(C)(C)C)c4ccccc43)n2)c1 | < 50 µM
C=CC(=O)Nc1cccc(Nc2ncnc(N(CC)c3cccc4ccccc34)n2)c1 | < 50 µM
CC#CC(=O)Nc1cccc(Nc2ncnc(N(CC)c3cccc(C(N)=O)c3)n2)c1 | < 50 µM
C=CC(=O)Nc1cccc(Nc2ncnc(Nc3cc(Cl)cc4ccccc34)n2)c1 | < 50 µM

Compound | IC50
C=CCN(c1ncnc(Nc2cccc(NC(=O)C=C)c2)n1)n1c(=O)[nH]c2ccccc21 | < 50 µM
C=CCC(=O)Nc1cccc(Nc2ncnc(Nc3ccc4NN(=Cc4c3)Cc5ccccn5)n2)c1 | < 50 µM
C=CC(=O)Nc1cccc(Nc2ncnc(N(CC)c3ccc(OCc4ccccc4)cc3)n2)c1 | < 50 µM
C=CC(=O)Nc1ccc(Nc2ncnc(Nc3ccc(OC)c(OC)c3)n2)cc1 | < 50 µM
C=CC(=O)Nc1cccc(Nc2ncnc(Nc3ccc(OCCOC)c(OC)c3)n2)c1 | < 50 µM
C=CC(=O)Nc1ccc(Nc2ncnc(Nc3ccc(OCCC)c(OCCC)c3)n2)cc1 | < 50 µM
CC#CC(=O)Nc1cccc(Nc2ncnc(N(C)c3cccc(S(=O)(=O)c4ccc([N+](=O)[O-])cc4)c3)n2)c1 | < 50 µM
C=CC(=O)Nc1cccc(Nc2ncnc(N(C)c3ccc(OCCC)c(OCCC)c3)n2)c1 | < 50 µM
CC#CC(=O)Nc1cccc(Nc2ncnc(N(C)c3cc(Cl)cc4ccccc34)n2)c1 | < 50 µM
CC#CC(=O)Nc1cccc(Nc2ncnc(Nc3ccc4c(ccn4Cc4ccccc4)c3)n2)c1 | < 50 µM
C=CC(=O)Nc1cccc(Nc2ncnc(Nn3c(=O)n(C(=O)C(C)(C)C)c4ccccc43)n2)c1 | < 50 µM
C=CCN(c1ccc2NN(=Cc2c1)Cc3ccccn3)c4ncnc(Nc5ccc(NC(=O)C=C)cc5)n4 | < 50 µM
C=CC(=O)Nc1ccc(Nc2ncnc(Nc3cc(Cl)cc4ccccc34)n2)cc1 | < 50 µM
C=CC(=O)Nc1ccc(Nc2ncnc(NC3CC3c3ccccc3)n2)cc1 (configuration not stated) | < 50 µM
C=CC(=O)Nc1ccc(Nc2ncnc(Nc3cccc(Cl)c3)n2)cc1 | < 50 µM
C=CCN(c1ccc(OCC)c(OCC)c1)c1ncnc(Nc2ccc(NC(=O)C=C)cc2)n1 | < 50 µM
CC#CC(=O)Nc1cccc(Nc2ncnc(N(C)c3ccc(OCCO)cc3)n2)c1 | < 50 µM
C=CC(=O)Nc1ccc(Nc2ncnc(Nc3cccc(C)c3)n2)cc1 | < 50 µM
C=CC(=O)N(CCCN1CCOCC1)c1cccc(Nc2ncnc(Nc3ccc(OCc4ccccc4)cc3)n2)c1 | < 50 µM
CC#CC(=O)Nc1cccc(Nc2ncnc(Nc3ccc(OC)c(OCCOC)c3)n2)c1 | < 50 µM
CC#CC(=O)Nc1cccc(Nc2ncnc(NC3CC3c3ccccc3)n2)c1 (configuration not stated) | < 50 µM

Further lines, results first:

IC50 | Compound
< 50 µM | C=CC(=O)Nc1ccc(Nc2ncnc(N(C)C3CC3c3ccccc3)n2)cc1 (configuration not stated)
< 50 µM | C=CC(=O)Nc1ccc(Nc2ncnc(N(C)c3ccc(OCc4ccccc4)c(Cl)c3)n2)cc1
< 50 µM | C=CC(=O)Nc1cccc(Nc2ncnc(Nc3cccc4ccccc34)n2)c1
< 50 µM | C=CC(=O)N(CCCN1CCOCC1)c2cccc(Nc3ncnc(Nc4ccc5NN(=Cc5c4)Cc6ccccn6)n3)c2
< 50 µM | CC#CC(=O)Nc1cc(Nc2ncnc(N(C)c3cccc(Cl)c3)n2)ccc1OCCCN1CCOCC1
< 50 µM | C=CC(=O)Nc1cccc(Nc2ncnc(Nc3cccc(Cl)c3)n2)c1
< 50 µM | C=CCN(c1cccc(Cl)c1)c1ncnc(Nc2cccc(NC(=O)C#CC)c2)n1
< 50 µM | C=CCN(c1cccc(Cl)c1)c1ncnc(Nc2cccc(NC(=O)C=C)c2)n1
< 50 µM | CC#CC(=O)Nc1cccc(Nc2ncnc(N(CC)c3ccc(OCCOC)c(OC)c3)n2)c1
< 50 µM | C=CC(=O)Nc1ccc(Nc2ncnc(Nc3cc(Cl)ccc3C)n2)cc1
< 50 µM | C=CC(=O)Nc1ccc(Nc2ncnc(Nc3ccc(OCCOC)c(OC)c3)n2)cc1
< 50 µM | CC#CC(=O)Nc1cccc(Nc2ncnc(Nc3cc(Cl)cc4ccccc34)n2)c1
< 50 µM | CC#CC(=O)Nc1cccc(Nc2ncnc(N(C)c3cccc(C)c3)n2)c1
< 50 µM | C=CC(=O)Nc1cccc(Nc2ncnc(N(C)c3ccc(C(=O)OC)cc3)n2)c1
< 50 µM | C=CC(=O)Nc1cc(Nc2ncnc(Nc3ccc4c(cnn4Cc4ccccc4)c3)n2)ccc1OCCCC1CCN(C)CC1
< 50 µM | C=CC(=O)Nc1cc(Nc2ncnc(N(C)c3ccc4c(cnn4Cc4ccccc4)c3)n2)ccc1OC
< 50 µM | C=CC(=O)Nc1cccc(Nc2ncnc(NN3CCCc4ccc(Cl)cc43)n2)c1
< 50 µM | C=CCN(c1cc(OC)c(OC)c(OCCN2CCOCC2)c1)c1ncnc(Nc2cccc(NC(=O)C=C)c2)n1
< 50 µM | C=CC(=O)n1ncc2cc(Nc3ncnc(Nc4ccc5c(cnn5Cc5ccccc5)c4)n3)ccc21
< 50 µM | C=CC(=O)Nc1cc(Nc2ncnc(Nc3ccc4c(ccn4Cc4ccccc4)c3)n2)ccc1OCCCC1CCN(C)CC1
< 50 µM | C=CC(=O)Nc1cc(Nc2ncnc(N(C)c3cccc(Cl)c3)n2)ccc1OCCCC1CCN(C)CC1
< 50 µM | CC#CC(=O)Nc1cccc(Nc2ncnc(N(C)c3ccc(OC)c(OC)c3)n2)c1
< 50 µM | C=CC(=O)n1ncc2ccc(Nc3ncnc(Nc4ccc5c(cnn5Cc5ccccc5)c4)n3)cc21
< 50 µM | C=CC(=O)N1CCc2cc(Nc3ncnc(Nc4ccc5c(cnn5Cc5ccccc5)c4)n3)ccc21
< 50 µM | C=CC(=O)N(CCCN1CCOCC1)c1cccc(Nc2ncnc(NC3CC3c3ccc(Cl)cc3)n2)c1 (configuration not stated)
< 50 µM | C=CC(=O)N(CCCN1CCOCC1)c1cccc(Nc2ncnc(Nc3ccc(F)c(Cl)c3)n2)c1
< 50 µM | C=CCN(c1ccc2c(cnn2Cc2ccccc2)c1)c1ncnc(Nc2ccc(NC(=O)C=C)cc2)n1
< 50 µM | C=CC(=O)Nc1cc(Nc2ncnc(Nc3cccc(Cl)c3)n2)ccc1OCCCN1CCOCC1
< 50 µM | C=CC(=O)Nc1cccc(Nc2ncnc(Nc3cccc(C(N)=O)c3)n2)c1
< 50 µM | CC#CC(=O)Nc1cccc(Nc2ncnc(Nc3cccc(C(N)=O)c3)n2)c1

From the Kinase Knowledgebase extract (Sharma et al. 2016)
